Test results from patent US10696693B2, “Fused imidazole derivatives as TGF-beta inhibitors” (Rigel Pharmaceuticals, Inc., priority 2014, dated 2020).
Read-outs that look alike come from different tables or passages of the source.

Legend:
GDF8 = assay: AlphaScreen SureFire p-SMAD3 (Ser423/425) assay, GDF8-stimulated cells; assay type: cell-based
Text: (§1) The p-SMAD-3 (Ser423/425) SureFire® assay has been designed to measure the phosphorylation of endogenous cellular p-SMAD-3 (Ser423/425) in cell lysates and is a system for the screening of both modulators of receptor activation (e.g. agonists and antagonists) as well as agents acting intracellularly, such as small molecule inhibitors of upstream events. The assay will measure p-SMAD-3 (Ser423/425) activation by either cloned or endogenous receptors, and can be applied to primary cells.
(§2) 96-well Assay Protocol for 293FT and RMS13 adherent cells can be carried out manually or in high throughput with liquid handling robots.
(§3) The cells (80 μL of cells for 96 well plates) were plated in collagen coated tissue culture plates in RPMI or FreeStyle medium (Invitrogen) and incubated overnight. For manual analysis, 6 plates for GDF8, 6 plates for TGFβ, and optionally 6 plates for Alk5ca(ALK5 constitutively active) were used.
(§4) The compound dilution plates were prepared as follows: 12 μL of DMSO was transferred into first column of 96-well plate, and 16 μL of DMSO was transferred into columns 2-12 of the 96-well plate. 12 μL of compound solution was transferred into first column of the DMSO-containing 96-well plate. Three-fold dilution was performed up to column 10 of the DMSO-containing 96-well plate.
(§5) The plate containing cells were treated with compounds for about 10 minutes, and then ligand was added. GDF8 or TGFb was added to plates to stimulate. 293FL cells were stimulatedfor 90 minutes at 37° C.; and RMS13 cells were stimulated for 60 minutes at 37° C. The medium was then removed from the cells, and 1× Lysis Buffer (about 25 μL) was added and the plate was gently agitated on plate shaker for 5-10 minutes.
(§6) The lysate (5 μL) was then placed into 384-well shallow plates avoiding the generation of bubbles. To this, the Reaction Buffer+Activation Buffer+AlphaScreen® Acceptor beadsmixture (5 μL) was added. The plate was sealed with adhesive cover and shielded from light (e.g., with metal foil), and agitated gently on plate shaker for 2 hours at room temperature.
(§7) Dilution buffer+AlphaScreen® Donor beads (2 μL) was then added, and the plate was intubated on the plate shaker for an additional 1½ hours. After completion, the plate was read on Synergy-4 or Enspire plate reader, using AlphaScreen® pSMAD3® settings.
(§8) Representative results for inhibition of GDF8 (data=GDF pSMAD (MPC11) (μM)) and TGF-β (data=TGF-β pSMAD (MPC-11) (μM)) signaling are shown in Table 1(A=<0.05 μM, B=0.05−<0.1 μM, C=0.1−<1.0 μM, D=>1.0 μM): […]

TGF-β = assay: AlphaScreen SureFire p-SMAD3 (Ser423/425) assay, TGF-β-stimulated cells; assay type: cell-based
Text: as §1, §2, §3, §4, §5, §6, §7, §8

[1] = Mus musculus, MPC-11, read-out: GDF8: inhibition of GDF8 signaling, GDF pSMAD (MPC11), p-SMAD3 (Ser423/425) AlphaScreen in cell lysate, GDF8 stimulation
[2] = Mus musculus, MPC-11, read-out: TGF-β: inhibition of TGF-β signaling, TGF-β pSMAD (MPC-11), p-SMAD3 (Ser423/425) AlphaScreen in cell lysate, TGF-β stimulation
[3] = Mus musculus, MPC-11, p-SMAD3 (Ser423/425) AlphaScreen in cell lysate, MPC11, GDF8 stimulation, read-out: GDF8: inhibition of GDF8 signaling, GDF pSMAD (MPC11)
[4] = Mus musculus, p-SMAD3 (Ser423/425) AlphaScreen in cell lysate, MPC-11, TGF-β stimulation, read-out: TGF-β: inhibition of TGF-β signaling, TGF-β pSMAD (MPC-11)

| SMILES | IC50 (GDF8; [3]) [nM] | IC50 (TGF-β; [4]) [nM] | also measured |
| --- | --- | --- | --- |
| O=C(O)C1CCC2(CC1)Cc1nc(-c3ccc(F)cc3)c(-c3ccc4ncsc4c3)n1C2 (stereo not shown) [Compound 332, 3′-(benzo[d]thiazol-6-yl)-2′-(4-fluorophenyl)-5′H,7′H-spiro[cyclohexane-1,6′-pyrrolo[1,2-a]imidazole]-4-carboxylic acid] |  |  | IC50 (GDF8; [1]): 100 to 1000 nM; IC50 (TGF-β; [2]): > 1000 nM |
| Cc1cc(-c2nc3n(c2-c2ccc4ncccc4c2)CCC3)c(Cl)cc1F [Compound 322, 6-(2-(2-chloro-4-fluoro-5-methylphenyl)-6,7-dihydro-5H-pyrrolo[1,2-a]imidazol-3-yl)quinoline] |  |  | IC50 (GDF8; read-out: GDF8: inhibition of GDF8 signaling, GDF pSMAD (MPC11), p-SMAD3 (Ser423/425) AlphaScreen in cell lysate, GDF8 stimulation): > 1000 nM; IC50 (TGF-β; read-out: TGF-β: inhibition of TGF-β signaling, TGF-β pSMAD (MPC-11), p-SMAD3 (Ser423/425) AlphaScreen in cell lysate, TGF-β stimulation): > 1000 nM |
| Fc1ccc(-c2nc3occn3c2-c2ccc3cn[nH]c3c2)c(F)c1 [Compound 155, 6-(2,4-difluorophenyl)-5-(1H-indazol-6-yl)imidazo[2,1-b]oxazole] | 50 to 100 | 100 to 1000 |  |
| Fc1cc(F)c(-c2nc3n(c2-c2ccc4nccn4c2)CCN3)cc1F [Compound 108, 6-(6-(2,4,5-trifluorophenyl)-2,3-dihydro-1H-imidazo[1,2-a]imidazol-5-yl)imidazo[1,2-a]pyridine] | < 50 | < 50 |  |
| Fc1ccc(Cl)cc1-c1nc2n(c1-c1cc3cnccc3s1)CCC2 [Compound 102, 2-(2-(5-chloro-2-fluorophenyl)-6,7-dihydro-5H-pyrrolo[1,2-a]imidazol-3-yl)thieno[3,2-c]pyridine] | < 50 | 50 to 100 |  |
| Cc1ccc(F)c(-c2nc3n(c2-c2ccc4ncnn4c2)CCC3)c1 [Compound 96, 6-(2-(2-fluoro-5-methylphenyl)-6,7-dihydro-5H-pyrrolo[1,2-a]imidazol-3-yl)-[1,2,4]triazolo[1,5-a]pyridine] | < 50 | < 50 |  |
| Clc1cccc(-c2nc3n(c2-c2ccc4nccnc4c2)CCC3)c1 [Compound 192, 6-(2-(3-chlorophenyl)-6,7-dihydro-5H-pyrrolo[1,2-a]imidazol-3-yl)quinoxaline] |  |  | IC50 (GDF8; [1]): 50 to 100 nM; IC50 (TGF-β; [2]): 100 to 1000 nM |
| Fc1ccccc1-c1nc2n(c1-c1ccc3ncsc3c1)CCC2 [Compound 199, 6-(2-(2-fluorophenyl)-6,7-dihydro-5H-pyrrolo[1,2-a]imidazol-3-yl)benzo[d]thiazole] | 100 to 1000 | 100 to 1000 |  |
| COCCOc1cnc2ccc(-c3c(-c4cc(F)c(F)cc4F)nc4n3CCN4)cc2n1 [Compound 115, 2-(2-methoxyethoxy)-7-(6-(2,4,5-trifluorophenyl)-2,3-dihydro-1H-imidazo[1,2-a]imidazol-5-yl)quinoxaline] | 100 to 1000 | 100 to 1000 |  |
| Fc1cc(F)c(-c2nc3n(c2-c2ccc4ncccc4c2)CCN3)cc1F [Compound 107, 6-(6-(2,4,5-trifluorophenyl)-2,3-dihydro-1H-imidazo[1,2-a]imidazol-5-yl)quinoline] | < 50 | < 50 |  |
| Cc1c(-c2nc3n(c2-c2ccc4ncnn4c2)CCC3)ccc(F)c1F [Compound 44, 6-(2-(3,4-difluoro-2-methylphenyl)-6,7-dihydro-5H-pyrrolo[1,2-a]imidazol-3-yl)-[1,2,4]triazolo[1,5-a]pyridine] | 100 to 1000 | > 1000 |  |
| CS(=O)(=O)OCC1CCC2(CC1)Cc1nc(-c3ccc(F)cc3)c(-c3ccc4ncnn4c3)n1C2 (stereo not shown) [Compound 84, (3′-([1,2,4]triazolo[1,5-a]pyridin-6-yl)-2′-(4-fluorophenyl)-5′H,7′H-spiro[cyclohexane-1,6′-pyrrolo[1,2-a]imidazol]-4-yl)methyl methanesulfonate] | > 1000 | > 1000 |  |
| Cc1cc(F)c(-c2nc3n(c2-c2ccc4ncccc4c2)CCC3)cc1F [Compound 287, 6-(2-(2,5-difluoro-4-methylphenyl)-6,7-dihydro-5H-pyrrolo[1,2-a]imidazol-3-yl)quinoline] |  |  | IC50 (GDF8; [1]): > 1000 nM; IC50 (TGF-β; [2]): > 1000 nM |
| Cc1ccc(-c2nc3n(c2-c2ccc4ncnn4c2)CCC3)c(F)c1F [Compound 26, 6-(2-(2,3-difluoro-4-methylphenyl)-6,7-dihydro-5H-pyrrolo[1,2-a]imidazol-3-yl)-[1,2,4]triazolo[1,5-a]pyridine] | > 1000 | > 1000 |  |
| Fc1cc(-c2nc3n(c2-c2ccc4nccn4c2)CCC3)c(F)cc1Cl [Compound 19, 6-(2-(4-chloro-2,5-difluorophenyl)-6,7-dihydro-5H-pyrrolo[1,2-a]imidazol-3-yl)imidazo[1,2-a]pyridine] | > 1000 | > 1000 |  |
| Cc1ccc(F)cc1-c1nc2n(c1-c1ccc3ncsc3c1)CCC2 [Compound 301, 6-(2-(5-fluoro-2-methylphenyl)-6,7-dihydro-5H-pyrrolo[1,2-a]imidazol-3-yl)benzo[d]thiazole] |  |  | IC50 (GDF8; [1]): 100 to 1000 nM; IC50 (TGF-β; [2]): > 1000 nM |
| Fc1cccc(-c2nc3n(c2-c2ccc4nccnc4c2)CCC3)c1 [Compound 196, 6-(2-(3-fluorophenyl)-6,7-dihydro-5H-pyrrolo[1,2-a]imidazol-3-yl)quinoxaline] |  |  | IC50 (GDF8; [1]): 100 to 1000 nM; IC50 (TGF-β; [2]): > 1000 nM |
| Fc1cc(F)c(-c2nc3n(c2-c2cc4cnccc4s2)CCN3)cc1F [Compound 116, 2-(6-(2,4,5-trifluorophenyl)-2,3-dihydro-1H-imidazo[1,2-a]imidazol-5-yl)thieno[3,2-c]pyridine] | < 50 | < 50 |  |

Further lines, with some results ahead:

| IC50 (GDF8; [3]) [nM] | IC50 (TGF-β; [4]) [nM] | SMILES | also measured |
| --- | --- | --- | --- |
| 100 to 1000 | > 1000 | Fc1cc(Cl)c(-c2nc3n(c2-c2ccc4ncccc4c2)CCC3)cc1F [Compound 290, 6-(2-(2-chloro-4,5-difluorophenyl)-6,7-dihydro-5H-pyrrolo[1,2-a]imidazol-3-yl)quinoline] |  |
| < 50 | 50 to 100 | Clc1ccc(Cl)c(-c2nc3n(c2-c2ccc4nccnc4c2)CCC3)c1 [Compound 348, 6-(2-(2,5-dichloropheny)-6,7-dihydro-5H-pyrrolo[1,2-a]imidazol-3-yl)quinoxaline] |  |
| > 1000 | > 1000 | Cc1cc(-c2nc3n(c2-c2ccc4nccnc4c2)CCC3)cc(Cl)c1F [Compound 274, 6-(2-(3-chloro-4-fluoro-5-methylpheny)-6,7-dihydro-5H-pyrrolo[1,2-a]imidazol-3-yl)quinoxaline] |  |
| 50 to 100 | 50 to 100 | Nc1ncnc2ccc(-c3c(-c4ccc(F)c(Cl)c4)nc4n3CCC4)cc12 [Compound 347, 6-(2-(3-chloro-4-fluorophenyl)-6,7-dihydro-5H-pyrrolo[1,2-a]imidazol-3-yl)quinazolin-4-amine] |  |
| < 50 | < 50 | Fc1ccc(Cl)cc1-c1nc2n(c1-c1ccc3ncsc3c1)CCC2 [Compound 339, 6-(2-(5-chloro-2-fluoropheny)-6,7-dihydro-5H-pyrrolo[1,2-a]imidazol-3-yl)benzo[d]thiazole] |  |
| < 50 | 100 to 1000 | Cc1cc(-c2nc3n(c2-c2ccc4ncccc4c2)CCC3)c(F)cc1F [Compound 271, 6-(2-(2,4-difluoro-5-methylphenyl)-6,7-dihydro-5H-pyrrolo[1,2-a]imidazol-3-yl)quinoline] |  |
| 50 to 100 | 100 to 1000 | Fc1ccc(-c2nc3n(c2-c2ccc4ncsc4c2)CCC3)cc1Cl [Compound 265, 6-(2-(3-chloro-4-fluoropheny)-6,7-dihydro-5H-pyrrolo[1,2-a]imidazol-3-yl)benzo[d]thiazole] |  |
| > 1000 | > 1000 | Cc1ccc(-c2nc3n(c2-c2ccc4ncsc4c2)CCC3)c(F)c1F [Compound 249, 6-(2-(2,3-difluoro-4-methylphenyl)-6,7-dihydro-5H-pyrrolo[1,2-a]imidazol-3-yl)benzo[d]thiazole] |  |
